Reference: patent US20170107207A1, “AMINOPYRAZOLONE DERIVATIVE” (DAIICHI SANKYO COMPANY, LIMITED, priority 2014, published 2017)
pIC50: −log10 of the molar value.

Legend:
TIP48/TIP49 complex = molecular target: T1, TIP48/TIP49 complex (Homo sapiens, UniProt Q9Y230+Q9Y265); experiment: ATPase assay of TIP48/TIP49 complex (ADP-Glo); format: biochemical; details: concentration at which the ATPase activity was inhibited by 50%
T1 construct: made in house; host or cells: E. coli
From the text: The ATPase activity of the TIP48/TIP49 complex can be measured by use of an ATPase assay described below in Test Examples 1 and 2. The ATPase activity of the TIP48/TIP49 complex can be measured, as described below in the Test Examples, for example, by using recombinant human TIP48 and TIP49 proteins (hereinafter, referred to as rTIP48 and rTIP49) and ATP in the presence or absence of a test compound and measuring the amount of ADP formed through hydrolysis by the ATPase activity of the TIP48/TIP49 complex, using ADP-Glo. Alternatively, the ATPase activity of the TIP48/TIP49 complex can be measured by a method described in, for example, J. Mol. Biol. 366, 172-179 (2007).
An ATPase assay of a TIP48/TIP49 complex was conducted using rTIP48 and rTIP49. Human TIP48 and TIP49 DNAs were purchased from Open Biosystems. Human TIP48 and TIP49 cDNAs cloned by PCR using the purchased DNAs were each integrated into plasmids for expression in E. coli and expressed in E. coli to obtain rTIP48 and rTIP49.
A test compound was dissolved at 10 mM using DMSO. The solution was diluted to 10 concentrations as 4-fold serial dilutions from 10 mM using DMSO.
A 2×assay buffer (100 mM Tris-HCl, pH 7.5, 100 mM NaCl, 40 mM MgCl2, 2 mM DTT, 20 μM ATP, and 0.2 mg/mL BSA) was dispensed at 24.5 μL/well to a 384-well assay plate.
Test compound solutions were dispensed thereto at 1 μL/well. Subsequently, the solution in each well was mixed using a plate mixer.
rTIP48 and rTIP49 were diluted to a concentration of 50 μg/mL using sterilized water. The diluted solution was dispensed at 24.5 μL/well to the 384-well assay plate. Subsequently, the solution in each well was mixed using a plate mixer (final concentration: 24.5 μg/mL) (concentration of each test compound solution: 200 μM, 50 μM, 12.5 μM, 3.12 μM, 0.78 μM, 0.20 μM, 0.049 μM, 0.012 μM, 0.003 μM, and 0.0007 μM; DMSO concentration: 2%).
After the mixing using the plate mixer, the assay plate was left standing at room temperature for 1.5 hours.
5 μL of the solution in each well was transferred to a white assay plate, and ADP-Glo Reagent from ADP-Glo Kinase Assay (Promega Corp., catalog No. V9101) was dispensed thereto at 5 μL/well. After completion of the reaction, the plate was left standing at room temperature for 40 minutes. Kinase Detection Reagent was further dispensed thereto at 5 μL/well, and the plate was left standing at room temperature for 30 minutes. Then, luminescence intensity was measured using a plate reader.
The ATPase inhibitory activity was calculated according to the expression given below.
The luminescence intensity of a well supplemented with the test compound and the TIP48/TIP49 complex was defined as A. The luminescence intensity of a well supplemented with only the TIP48/TIP49 complex was defined as B. The luminescence intensity of a well supplemented with neither the test compound nor the TIP48/TIP49 complex was defined as C. The ratio between the test compound-supplemented group and the test compound-nonsupplemented group (T/C value) was determined according to the following calculation expression:
The dose-response curve was calculated using GraphPad Prism 4 from the concentration of each of the serially diluted test compounds and the ATPase inhibitory activity (%) at this concentration.

[1] = system: human lymphoma cell line RAMOS cells; experiment: Cell growth inhibition test using RAMOS cell, ATP assay (CellTiter-Glo); format: cell-based; details: Homo sapiens, Ramos, 72 h, cultured 3 days, 50% growth inhibition concentration
Description: A cell growth inhibition test was carried out by treating human lymphoma cell line RAMOS cells with a test compound for a given period and then counting the number of viable cells by MTT assay or CellTiter-Glo Luminescent Cell Viability Assay (manufactured by Promega Corp.; hereinafter, referred to as ATP assay).
RAMOS cells were inoculated at 4000 cells/40 μL/well to a 384-well plate containing the compound prepared in advance at predetermined concentrations. The cells thus inoculated were cultured at 37° C. for 3 days under 5% CO2. In order to measure a cell survival rate, CellTiter-Glo Reagent was added in an amount corresponding to 1/4 of the amount of the culture solution at the day of cell inoculation and at the final culture date and stirred at room temperature for 2 minutes. Then, luminescence intensity was measured using a plate reader. The cell survival rate was calculated according to the expression given below.
The number of viable cells and luminescence intensity have been confirmed to correlate with each other. Therefore, the rate of cell growth was calculated according to the following expression: Rate of cell growth (T/C %) of a test compound-supplemented well=100×[(B−C)/(A−C)] wherein A represents the luminescence intensity (final culture date) of a test compound-free well; B represents the luminescence intensity (final culture date) of a test compound-containing well; and C represents the luminescence intensity (day of cell inoculation) of a well at the start of contact of the cells with the test compound.
T/C % at each concentration of the test compound was determined. The concentration at which the test compound offered 50% growth rate was calculated as a GI50 value from the growth rates at two points interpolating 50% and the concentrations, and is shown in Table 56.

T1 sequence (Q9Y230 whole entry): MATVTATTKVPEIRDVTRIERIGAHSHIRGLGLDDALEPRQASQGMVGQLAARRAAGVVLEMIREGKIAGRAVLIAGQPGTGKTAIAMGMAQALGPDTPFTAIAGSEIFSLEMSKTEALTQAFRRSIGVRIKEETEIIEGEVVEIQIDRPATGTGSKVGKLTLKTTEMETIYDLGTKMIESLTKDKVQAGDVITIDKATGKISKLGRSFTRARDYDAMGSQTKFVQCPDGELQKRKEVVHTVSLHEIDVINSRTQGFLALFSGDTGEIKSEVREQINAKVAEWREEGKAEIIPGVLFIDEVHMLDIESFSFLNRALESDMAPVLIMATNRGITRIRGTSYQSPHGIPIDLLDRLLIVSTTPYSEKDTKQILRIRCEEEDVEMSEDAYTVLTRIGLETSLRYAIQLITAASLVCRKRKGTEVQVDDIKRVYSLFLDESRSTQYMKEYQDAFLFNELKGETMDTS
T1 sequence (Q9Y265 whole entry): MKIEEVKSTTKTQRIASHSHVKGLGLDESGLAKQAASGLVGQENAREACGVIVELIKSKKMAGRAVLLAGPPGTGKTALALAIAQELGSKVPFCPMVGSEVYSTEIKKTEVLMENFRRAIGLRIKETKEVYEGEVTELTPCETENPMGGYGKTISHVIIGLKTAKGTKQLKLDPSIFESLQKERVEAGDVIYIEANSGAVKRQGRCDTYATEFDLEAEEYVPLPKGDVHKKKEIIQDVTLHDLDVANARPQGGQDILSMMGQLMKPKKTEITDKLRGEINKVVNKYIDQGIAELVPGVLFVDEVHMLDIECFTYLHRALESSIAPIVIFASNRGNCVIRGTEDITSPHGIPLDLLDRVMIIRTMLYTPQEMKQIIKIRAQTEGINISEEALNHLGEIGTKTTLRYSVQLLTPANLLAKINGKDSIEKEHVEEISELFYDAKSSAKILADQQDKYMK

How did the pIC50 (TIP48/TIP49 complex) turn out when `CCOc1cc(F)c(Cl)cc1C(=O)NCC(C)(C)CC(=O)Nc1c(CCNC)n(C)n(-c2ccccc2)c1=O` [Example 34, 5-Chloro-N-[2,2-dimethyl-4-({1-methyl-5-[2-(methylamino)ethyl]-3-oxo-2-phenyl-2,3-dihydro-1H-pyrazol-4-yl}amino)-4-oxobutyl]-2-ethoxy-4-fluorobenzamide] was run?
Its pIC50 is 7.25.

And the GI50 [1]?
The GI50 was 0.47 µM.

With `CCOc1ccc(Cl)cc1C(=O)NCC(C)(C)CC(=O)Nc1c(CCN(C)CCF)n(C)n(-c2ccccc2)c1=O` [Example 36, 5-Chloro-2-ethoxy-N-{4-[(5-{2-[2-fluoroethyl(methyl)amino]ethyl}-1-methyl-3-oxo-2-phenyl-2,3-dihydro-1H-pyrazol-4-yl)amino]-2,2-dimethyl-4-oxobutyl}benzamide] as the compound, how does the pIC50 (TIP48/TIP49 complex) read?
Its pIC50 is 7.62.

And the GI50 [1]?
The GI50 was 0.12 µM.

What does the source list for `CCOc1cc(F)c(Cl)cc1C(=O)NCC(C)(C)CC(=O)Nc1c(CCN(C)CCF)n(C)n(-c2ccccc2)c1=O` [Example 37, 5-Chloro-2-ethoxy-4-fluoro-N-{4-[(5-{2-[2-fluoroethyl(methyl)amino]ethyl}-1-methyl-3-oxo-2-phenyl-2,3-dihydro-1H-pyrazol-4-yl)amino]-2,2-dimethyl-4-oxobutyl}benzamide]?
pIC50 (TIP48/TIP49 complex): 7.42; GI50 [1]: 0.12 µM

What does the source list for `CCOc1cc(F)c(Cl)cc1C(=O)NCC(C)(C)CC(=O)Nc1c(CCN(C)CC(F)(F)F)n(C)n(-c2ccccc2)c1=O` [Example 38, 5-Chloro-N-{2,2-dimethyl-4-[(1-methyl-5-{2-[methyl(2,2,2-trifluoroethyl)amino]ethyl}-3-oxo-2-phenyl-2,3-dihydro-1H-pyrazol-4-yl)amino]-4-oxobutyl}-2-ethoxy-4-fluorobenzamide]?
pIC50 (TIP48/TIP49 complex): 7.11; GI50 [1]: 0.21 µM

With `CCOc1cc(F)c(Cl)cc1C(=O)NCC(C)(C)CC(=O)Nc1c(CCN(C)C)n(CC)n(-c2ccccc2)c1=O` [Example 41, 5-Chloro-N-[4-({5-[2-(dimethylamino)ethyl]-1-ethyl-3-oxo-2-phenyl-2,3-dihydro-1H-pyrazol-4-yl}amino)-2,2-dimethyl-4-oxobutyl]-2-ethoxy-4-fluorobenzamide] as the compound, how does the pIC50 (TIP48/TIP49 complex) read?
The pIC50 was 7.70.

And the GI50 [1]?
The GI50 was 0.098 µM.

How did the pIC50 (TIP48/TIP49 complex) turn out when `CCOc1ncc(Cl)cc1C(=O)NCC(C)(C)CC(=O)Nc1c(CCN(C)C)n(CC)n(-c2ccccc2)c1=O` [Example 42, 5-Chloro-N-[4-({5-[2-(dimethylamino)ethyl]-1-ethyl-3-oxo-2-phenyl-2,3-dihydro-1H-pyrazol-4-yl}amino)-2,2-dimethyl-4-oxobutyl]-2-ethoxypyridine-3-carboxamide] was run?
Its pIC50 is 7.10.

What about the GI50 [1] of the same compound?
Its GI50 is 0.15 µM.

How did the pIC50 (TIP48/TIP49 complex) turn out when `[2H]C([2H])([2H])n1c(CCN(C)C)c(NC(=O)CC(C)(C)CNC(=O)c2cc(Cl)ccc2OCC)c(=O)n1-c1ccccc1` [Example 43, 5-Chloro-N-[4-({3-[2-(dimethylamino)ethyl]-5-oxo-1-phenyl-2-(trideuteriomethyl)pyrazol-4-yl}amino)-2,2-dimethyl-4-oxobutyl]-2-ethoxybenzamide] was run?
The pIC50 was 7.22.

And the GI50 [1]?
The GI50 was 0.19 µM.

Which results are given for `[2H]C([2H])([2H])n1c(CCN(C)C)c(NC(=O)CC(C)(C)CNC(=O)c2cc(Br)cnc2OCC)c(=O)n1-c1ccccc1` [Example 44, 5-Bromo-N-[4-({3-[2-(dimethylamino)ethyl]-5-oxo-1-phenyl-2-(trideuteriomethyl)-2,3-dihydro-1H-pyrazol-4-yl}amino)-2,2-dimethyl-4-oxobutyl]-2-ethoxypyridine-3-carboxamide]?
pIC50 (TIP48/TIP49 complex): 6.82; GI50 [1]: 0.47 µM

How did the pIC50 (TIP48/TIP49 complex) turn out when `CCOc1ccc(Cl)cc1C(=O)NCC(C)(C)CC(=O)Nc1c(CCN(C)C)n(C)n(-c2ccccc2F)c1=O` [Example 45, 5-Chloro-N-[4-({3-[2-(dimethylamino)ethyl]-1-(2-fluorophenyl)-2-methyl-5-oxopyrazol-4-yl}amino)-2,2-dimethyl-4-oxobutyl]-2-ethoxybenzamide] was run?
Its pIC50 is 7.11.

What about the GI50 [1] of the same compound?
The GI50 was 0.48 µM.

Which results are given for `Cc1cc2cc(Cl)cc(C(=O)NCC(C)(C)CC(=O)Nc3c(CCN(C)C)n(C)n(-c4ccccc4F)c3=O)c2o1` [Example 46, 5-Chloro-N-[4-({3-[2-(dimethylamino)ethyl]-1-(2-fluorophenyl)-2-methyl-5-oxo-1,5-dihydro-1H-pyrazol-4-yl}amino)-2,2-dimethyl-4-oxobutyl]-2-methylbenzofuran-7-carboxamide]?
pIC50 (TIP48/TIP49 complex): 7.09; GI50 [1]: 0.47 µM

With `CCOc1ccc(Cl)cc1C(=O)NCC(C)(C)CC(=O)Nc1c(CCN(C)C)n(C)n(-c2cccc(Cl)n2)c1=O` [Example 47, 5-Chloro-N-(4-{[1-(6-chloro-2-pyridyl)-3-(2-dimethylamino)ethyl]-2-methyl-5-oxopyrazol-4-yl}amino-2,2-dimethyl-4-oxobutyl)-2-ethoxybenzamide] as the compound, how does the pIC50 (TIP48/TIP49 complex) read?
Its pIC50 is 7.43.

And the GI50 [1]?
The GI50 was 0.25 µM.

Which results are given for `CCOc1ccc(Cl)cc1C(=O)NCC(C)(C)CC(=O)Nc1c(C[C@@H](C)N(C)C)n(C)n(-c2ccccc2)c1=O` [Example 48, 5-Chloro-N-[4-({5-[(2R)-2-(dimethylamino)propyl]-1-methyl-3-oxo-2-phenyl-2,3-dihydro-1H-pyrazol-4-yl}amino)-2,2-dimethyl-4-oxobutyl]-2-ethoxybenzamide]?
pIC50 (TIP48/TIP49 complex): 7.21; GI50 [1]: 0.16 µM

What does the source list for `CCOc1cc(F)c(Cl)cc1C(=O)NCC(C)(C)CC(=O)Nc1c(C[C@@H](C)N(C)C)n(C)n(-c2ccccc2)c1=O` [Example 49, 5-Chloro-N-[4-({5-[(2R)-2-(dimethylamino)propyl]-1-methyl-3-oxo-2-phenyl-2,3-dihydro-1H-pyrazol-4-yl}amino)-2,2-dimethyl-4-oxobutyl]-2-ethoxy-4-fluorobenzamide]?
pIC50 (TIP48/TIP49 complex): 7.16; GI50 [1]: 0.16 µM

With `Cc1cc2cc(Cl)cc(C(=O)NCC(C)(C)CC(=O)Nc3c(C[C@@H](C)N(C)C)n(C)n(-c4ccccc4)c3=O)c2o1` [Example 50, 5-Chloro-N-[4-({5-[(2R)-2-(dimethylamino)propyl]-1-methyl-3-oxo-2-phenyl-2,3-dihydro-1H-pyrazol-4-yl}amino)-2,2-dimethyl-4-oxobutyl]-2-methylbenzofuran-7-carboxamide] as the compound, how does the pIC50 (TIP48/TIP49 complex) read?
Its pIC50 is 7.30.

And the GI50 [1]?
The GI50 was 0.21 µM.

Which results are given for `CCOc1ccc(Cl)cc1C(=O)NCC(C)(C)CC(=O)Nc1c(C[C@H](C)N(C)C)n(C)n(-c2ccccc2)c1=O` [Example 51, 5-Chloro-N-[4-({5-[(2S)-2-(dimethylamino)propyl]-1-methyl-3-oxo-2-phenyl-2,3-dihydro-1H-pyrazol-4-yl}amino)-2,2-dimethyl-4-oxobutyl]-2-ethoxybenzamide]?
pIC50 (TIP48/TIP49 complex): 7.15; GI50 [1]: 0.14 µM

What does the source list for `CCOc1cc(F)c(Cl)cc1C(=O)NCC(C)(C)CC(=O)Nc1c(C[C@H](C)N(C)C)n(C)n(-c2ccccc2)c1=O` [Example 52, 5-Chloro-N-[4-({5-[(2S)-2-(dimethylamino)propyl]-1-methyl-3-oxo-2-phenyl-2,3-dihydro-1H-pyrazol-4-yl}amino)-2,2-dimethyl-4-oxobutyl]-2-ethoxy-4-fluorobenzamide]?
pIC50 (TIP48/TIP49 complex): 7.44; GI50 [1]: 0.12 µM
